The results in this text go back to patent publication US8748418B2, “1,4-oxazepines as BACE1 and/or BACE2 inhibitors” (Hoffmann-La Roche Inc., priority 2011, dated 2014).

For experiment [1], the target named is BACE1 (Homo sapiens (Human), UniProt P56817). Put plainly: Cellular Aβ-lowering assay (Aβ40 ELISA in HEK293 cells expressing human APP695). The format is cell-based. The conditions noted are these: HEK293 cells stably transfected with human APP wt (APP695), Aβ40 in supernatant after 18-20 hrs. The protocol: Cellular Aβ-Lowering Assay:
Human HEK293 cells which are stably transfected with a vector expressing a cDNA of the human APP wt gene (APP695) were used to assess the potency of the compounds in a cellular assay. The cells were seeded in 96-well microtiter plates in cell culture medium (Iscove, plus 10% (v/v) fetal bovine serum, glutamine, penicillin/streptomycin) to about 80% confluence and the compounds were added at a 10× concentration in 1/10 volume of medium without FCS containing 8% DMSO (final concentration of DMSO was kept at 0.8% v/v). After 18-20 hrs incubation at 37° C. and 5% CO2 in a humidified incubator the culture supernatant was harvested for the determination of Aβ40 concentrations. 96 well ELISA plates (e.g., Nunc MaxiSorb) were coated with monoclonal antibody which specifically recognize the C-terminal end of Aβ40 (Brockhaus et al., NeuroReport 9, 1481-1486; 1998). After blocking of non-specific binding sites with e.g. 1% BSA and washing, the culture supernatants were added in suitable dilutions together with a horseradish peroxidase-coupled Aβ detection antibody (e.g., antibody 4G8, Senetek, Maryland Heights, Mo.) and incubated for 5 to 7 hrs. Subsequently the wells of the microtiter plate were washed extensively with Tris-buffered saline containing 0.05% Tween 20 and the assay was developed with tetramethylbenzidine/H2O2 in citric acid buffer. After stopping the reaction with one volume 1NH2SO4 the reaction was measured in an ELISA reader at 450 nm wavelength. The concentrations of Aβ in the culture supernatants were calculated from a standard curve obtained with known amounts of pure Aβ peptide.

Experiment [2] deals with BACE2 (Homo sapiens (Human), UniProt Q9Y5Z0). The experiment is described as follows: Immunofluorescence Resonance Energy Transfer (FRET) assay for BACE2 inhibition. The format is biochemical. The conditions noted are these: TMEM27-based peptide substrate 5 μM, pH 4.5. As for the experimental part:
Immunofluorescence Resonance Energy Transfer (FRET) Assay for BACE2 Inhibition:
BACE2 enzyme ectodomain (derived from plasmid “pET17b-T7-hu proBACE2”) was prepared as described in Ostermann et al., “Crystal Structure of Human BACE2 in Complex with a Hydroxyethylamine Transition-state Inhibitor”, Journal of Molecular Biology 2006, 355, 249-261. The pro-enzyme was stored at 4° C. at a concentration of 70 μg/ml.
The FRET assay was performed essentially as described in Grüninger-Leitch et al., Journal of Biological Chemistry (2002) 277(7) 4687-93 (“Substrate and inhibitor profile of BACE (beta-secretase) and comparison with other mammalian aspartic proteases”). In summary, a peptide is designed that is cleaved by the protease. The peptide is labelled with dabcyl at the N terminus and Lucifer Yellow at the C-terminus, such that for an intact peptide the Lucifer Yellow fluorescence is quenched by the dabcyl. When the peptide is cut by BACE2, the quenching is removed and a fluorescent signal is generated.
The assay was performed as described in Grueninger et al. 2002 at pH 4.5 using a substrate concentration of 5 μM. A FRET peptide based on the TMEM27 sequence was devised. dabcyl-[…]-LucY (SEQ ID NO: 1).
The assay readout is the initial rate of change of fluorescence intensity giving a relative measure of BACE2 activity. Small values correspond to high inhibition and larger values to low inhibition. […] IC50 values were determined using these assay values generated for a range of inhibitor concentrations and the curve fitting software XLfit (IDBS) using the Sigmoidal Dose-Response Model.

Sequence of BACE1 (P56817 46-501): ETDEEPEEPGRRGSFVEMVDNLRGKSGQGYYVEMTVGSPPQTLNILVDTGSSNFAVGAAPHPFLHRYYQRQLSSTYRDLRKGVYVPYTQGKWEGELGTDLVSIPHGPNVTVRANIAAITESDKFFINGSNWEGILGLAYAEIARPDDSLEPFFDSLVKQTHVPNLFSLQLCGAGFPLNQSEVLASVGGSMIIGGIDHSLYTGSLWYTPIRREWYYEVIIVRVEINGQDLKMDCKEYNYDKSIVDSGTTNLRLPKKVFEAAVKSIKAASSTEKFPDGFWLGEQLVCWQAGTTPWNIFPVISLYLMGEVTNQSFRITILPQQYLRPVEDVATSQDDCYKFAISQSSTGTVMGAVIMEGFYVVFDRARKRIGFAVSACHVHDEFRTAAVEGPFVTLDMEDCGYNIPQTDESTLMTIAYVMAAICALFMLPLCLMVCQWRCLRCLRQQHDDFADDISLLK
Sequence of BACE2 (Q9Y5Z0 63-473): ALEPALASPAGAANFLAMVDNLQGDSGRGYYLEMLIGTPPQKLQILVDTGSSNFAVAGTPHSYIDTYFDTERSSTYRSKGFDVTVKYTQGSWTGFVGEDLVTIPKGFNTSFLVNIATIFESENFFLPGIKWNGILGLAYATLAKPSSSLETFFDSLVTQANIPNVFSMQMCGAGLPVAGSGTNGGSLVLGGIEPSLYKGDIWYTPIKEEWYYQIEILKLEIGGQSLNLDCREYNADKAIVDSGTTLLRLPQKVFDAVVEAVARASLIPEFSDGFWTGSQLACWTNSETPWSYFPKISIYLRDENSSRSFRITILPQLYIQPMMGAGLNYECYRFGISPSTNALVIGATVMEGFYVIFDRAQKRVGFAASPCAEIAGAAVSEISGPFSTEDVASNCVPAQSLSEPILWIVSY

On to `CC1(C)OCC(N)=N[C@](C)(c2cc(N[C@@H]3CCc4cc(C#N)cnc43)c(F)cc2F)C1(F)F` [Example 21, (R)-7-[5-((R)-3-Amino-6,6-difluoro-5,7,7-trimethyl-2,5,6,7-tetrahydro-[1,4]oxazepin-5-yl)-2,4-difluoro-phenylamino]-6,7-dihydro-5H-[1]pyrindine-3-carbonitrile], for which the values for the IC50 in experiment [1] and in experiment [2] were 14000 nM and 2810 nM, respectively.

Consider `CC1(C)OCC(N)=N[C@](C)(c2cc(Nc3ccc(Cl)nc3)ccc2F)C1(F)F` [Example 22, (R)-5-[5-(6-Chloro-pyridin-3-ylamino)-2-fluoro-phenyl]-6,6-difluoro-5,7,7-trimethyl-2,5,6,7-tetrahydro-[1,4]oxazepin-3-ylamine], for which the IC50 in experiment [1] stood at 370 nM; in experiment [2], 1770 nM.

Regarding `CC1(C)OCC(N)=N[C@](C)(c2cc(Nc3cncc(F)c3)ccc2F)C1(F)F` [Example 23, (R)-6,6-Difluoro-5-[2-fluoro-5-(5-fluoro-pyridin-3-ylamino)-phenyl]-5,7,7-trimethyl-2,5,6,7-tetrahydro-[1,4]oxazepin-3-ylamine], the IC50 in experiment [1] was found to be 440 nM; in experiment [2], 1360 nM.

For the compound `CC1(C)OCC(N)=N[C@](C)(c2cc(Nc3cccnc3)ccc2F)C1(F)F` [Example 24, (R)-6,6-Difluoro-5-[2-fluoro-5-(pyridin-3-ylamino)-phenyl]-5,7,7-trimethyl-2,5,6,7-tetrahydro-[1,4]oxazepin-3-ylamine], the half-maximal inhibitory concentration (IC50) in experiment [1] was 1100 nM; in experiment [2] it was 940 nM.

`COc1ccc(Nc2ccc(F)c([C@@]3(C)N=C(N)COC(C)(C)C3(F)F)c2)cn1` [Example 25, (R)-6,6-Difluoro-5-[2-fluoro-5-(6-methoxy-pyridin-3-ylamino)-phenyl]-5,7,7-trimethyl-2,5,6,7-tetrahydro-[1,4]oxazepin-3-ylamine]: the IC50 came out at 410 nM in experiment [1] and 1630 nM in experiment [2].

For `CC1(C)OCC(N)=N[C@](C)(c2cc(Nc3ccc(OCC(F)(F)F)nc3)ccc2F)C1(F)F` [Example 28, (R)-6,6-Difluoro-5-{2-fluoro-5-[6-(2,2,2-trifluoro-ethoxy)-pyridin-3-ylamino]-phenyl}-5,7,7-trimethyl-2,5,6,7-tetrahydro-[1,4]oxazepin-3-ylamine], the IC50 turned out to be 12700 nM in experiment [1] and 1490 nM in experiment [2].

What is called IC50 is the concentration needed to halve the response being measured.
